Test results published in PubChem BioAssay (NCI).
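The compound was tested at five concentrations on cells cultured in 96-well plates, with a 48-hour exposure period. The concentration for 50% growth inhibition is given as GI50. TGI: concentration producing complete growth inhibition.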

Tests used:
Test in all cases: growth of human tumour cells (NCI), 48 h
[1] = tested on: NCI-H226 lung
[2] = tested on: SK-MEL-28 melanoma
[3] = tested on: SK-MEL-2 melanoma
[4] = tested on: UACC-62 melanoma
[5] = tested on: EKVX NSCLC
[6] = tested on: KM12 colon
[7] = tested on: OVCAR-5 ovarian
[8] = tested on: NCI-H460 lung
[9] = tested on: CCRF-CEM leukemia
[10] = tested on: OVCAR-8 ovarian

SMILES | TGI [1] [µM] | TGI [2] [µM] | TGI [3] [µM] | TGI [4] [µM] | TGI [5] [µM] | TGI [6] [µM] | TGI [7] [µM] | TGI [8] [µM] | TGI [9] [µM] | TGI [10] [µM] | GI50 [1] [µM] | GI50 [2] [µM] | GI50 [3] [µM] | GI50 [4] [µM] | GI50 [5] [µM] | GI50 [6] [µM] | GI50 [7] [µM] | GI50 [8] [µM] | GI50 [9] [µM] | GI50 [10] [µM]
CC(C)c1cccc(C(C)C)c1NC(=S)Nc1ccccc1 | > 100 | > 100 | > 100 | > 100 | > 100 | > 100 | > 100 | > 100 | > 100 | > 100 |  |  |  |  |  |  |  |  |  | 
Cc1ccc(NC(=O)c2cc(S(=O)(=O)N3CCNNC3=O)c(S)cc2Cl)cc1 | > 100 | > 100 | > 100 | > 100 | > 100 | > 100 | > 100 | > 100 | > 100 | > 100 |  |  |  |  |  |  |  |  |  | 
COC(=O)[C@@H](COC(=O)/C=C/c1ccc(OC(C)=O)c(OC(C)=O)c1)NC(=O)/C=C/c1ccc(OC(C)=O)c(OC(C)=O)c1 | > 100 | > 100 | 55.4 | 45.9 | 71.5 | 94.6 | > 100 | 47 | > 100 | > 100 |  |  |  |  |  |  |  |  |  | 
CC(=O)Nc1ccccc1S(=O)(=O)c1c(-c2c(C)c(Cl)c(C)c(Cl)c2C)noc1C | 78.8 | > 100 | > 100 | > 100 | > 100 | > 100 | > 100 | > 100 | 71.2 | > 100 |  |  |  |  |  |  |  |  |  | 
COc1ccc(C(c2ccccc2)N2C(=O)CCC2C(=O)O)cc1OC (stereo not given) | > 100 | > 100 | > 100 | > 100 | > 100 | > 100 | > 100 | > 100 | > 100 | > 100 |  |  |  |  |  |  |  |  |  | 
CC1(C)O[C@@H]([C@@H](O)[C@H](O)C2SCCCS2)[C@@H](CO)O1 | > 100 | > 100 | > 100 | > 100 | > 100 | > 100 | > 100 | > 100 | > 100 | > 100 |  |  |  |  |  |  |  |  |  | 
O=C(Nc1ccc(-n2cc(-c3ccncc3)c(-c3ccc(O)c(Cl)c3)n2)cc1)c1ccc(Cl)c(Cl)c1 | > 32.5 | > 32.5 | 7.41 | > 32.5 | > 32.5 | > 32.5 | > 32.5 | > 32.5 | > 32.5 | > 32.5 | > 32.5 | > 32.5 | 0.932 | 2.48 | 30.5 | 1.63 | > 32.5 | 1.58 | 1.01 | 1.74
Nc1nc(Cl)c(N)c(NCC2(CO)CC(O)C2)n1 (stereo not given) | > 100 | > 100 | > 100 | > 100 | > 100 | > 100 | > 100 | > 100 | > 100 | > 100 |  |  |  |  |  |  |  |  |  | 
O=C(CCl)Nc1ccc(-c2nc3ccccc3s2)cc1 | 5.11 | 9.66 | 8.37 | 8.71 | 17.1 | 11 | 17.1 | 7.46 | > 36.7 | 9.66 |  |  |  |  |  |  |  |  |  | 
COC1(CCO)CC=CCC1(CCO)OC (stereo not given) | > 100 | > 100 | > 100 | > 100 | > 100 | > 100 | > 100 | > 100 | > 100 | > 100 |  |  |  |  |  |  |  |  |  | 
C[N+](C)(C)C(Cc1c[nH]c(=S)[nH]1)C(=O)O (stereo not given) | > 100 | > 100 | > 100 | > 100 | > 100 | > 100 | > 100 | > 100 | > 100 | > 100 |  |  |  |  |  |  |  |  |  | 
CCCN=C1S/C(=C/c2ccc(OC)c(OC)c2)C(=O)N1c1ccccc1 | 95 | > 100 | 85.8 | > 100 | > 100 | > 100 | > 100 | > 100 | > 100 | > 100 |  |  |  |  |  |  |  |  |  | 
O=C1c2ccccc2-c2ccc(N(Cc3ccc(Br)cc3)Cc3ccc(Br)cc3)cc21 | > 100 | > 100 | > 100 | > 100 | > 100 | > 100 | > 100 | > 100 | 46.2 | > 100 |  |  |  |  |  |  |  |  |  | 
CC(C)=CCc1c(O)c(CC=C(C)C)c2oc3c(c(=O)c2c1O)C(C=C(C)C)Oc1cc(O)ccc1-3 (stereo not given) | 49.8 | 21.5 | 7.93 | 18 | 14.5 | 11.6 | 33.1 | 17 | 7.68 | 24.4 |  |  |  |  |  |  |  |  |  | 
CSc1nc2ccccc2c(=O)n1-c1cccc(C)c1 | > 100 | > 100 | > 100 | > 100 | > 100 | > 100 | > 100 | > 100 | > 100 | > 100 |  |  |  |  |  |  |  |  |  | 
c1cc(-c2ccc(Oc3ccc(-c4ccncc4)cc3)cc2)ccn1 | > 100 | > 95.1 | > 100 | > 100 | > 67.1 | > 27.4 | > 100 | > 94.2 | > 47.3 | > 100 |  |  |  |  |  |  |  |  |  | 

SMILES | TGI [1] [µM] | TGI [2] [µM] | TGI [3] [µM] | TGI [4] [µM] | TGI [5] [µM] | TGI [6] [µM] | TGI [7] [µM] | TGI [8] [µM] | TGI [9] [µM] | TGI [10] [µM] | GI50 [1] [µM] | GI50 [2] [µM] | GI50 [3] [µM] | GI50 [4] [µM] | GI50 [5] [µM] | GI50 [6] [µM] | GI50 [7] [µM] | GI50 [8] [µM] | GI50 [9] [µM] | GI50 [10] [µM]
O=Cc1cc(O)ccc1Br | > 91.7 | > 100 | > 93.2 | 50.4 | > 100 | > 81.6 | > 100 | > 100 | 15.5 | 53.7 |  |  |  |  |  |  |  |  |  | 
NC(=S)NS(=O)(=O)c1ccc(F)cc1 | > 100 | > 100 | > 100 | > 100 | > 100 | > 100 | > 100 | > 100 | > 100 | > 100 |  |  |  |  |  |  |  |  |  | 
CSc1nc(NC2OC(CO)C(O)C(O)C2O)c(N)c(=O)n1C (stereo not given) | > 100 | > 100 | > 100 | > 100 | > 100 | > 100 | > 100 | > 100 | > 100 | > 100 |  |  |  |  |  |  |  |  |  | 
NC(N)=NCCCS(=O)(=O)Nc1ccc(Nc2c3ccccc3nc3cc([N+](=O)[O-])ccc23)cc1 | 45.5 | 40.7 | 66.1 | 51.7 | 70.7 | 51.4 | > 74.1 | 33 | > 74.9 | > 92.9 |  |  |  |  |  |  |  |  |  | 
Nc1nc(SCC(=O)c2ccccc2)nc2nc3c(c(-c4ccccc4)c12)CCCC3 | 62.7 | 61.9 | > 100 | > 100 | > 100 | > 100 | > 100 | > 100 | > 100 | 89 |  |  |  |  |  |  |  |  |  | 
O=C1c2cc([N+](=O)[O-])cnc2S(=O)(=O)N1c1ccc(Oc2ccccc2)cc1 | > 100 | > 100 | > 100 | > 100 | > 100 | > 100 | > 100 | > 100 | > 100 | > 100 |  |  |  |  |  |  |  |  |  | 
COc1cc(O)c2c(=O)cc(C3(OC(C)=O)C=CC(OC4OC(CO)C(O)C(O)C4O)C=C3)oc2c1 (stereo not given) | > 100 | > 100 | > 100 | > 100 | > 100 | > 100 | > 100 | > 100 | > 100 | > 100 |  |  |  |  |  |  |  |  |  | 
CSC(=S)Nc1cc(C)ccn1 | > 100 | > 100 | > 100 | > 100 | > 100 | > 100 | > 100 | > 100 | > 100 | > 100 |  |  |  |  |  |  |  |  |  | 
CCOP(=O)(OCC)OC1CC(n2cnc3c(N(CC)CC)ncnc32)OC1CO[Si](C)(C)C(C)(C)C (stereo not given) | 39.3 | 36.3 | 45.6 | 28.2 | 20.5 | 38.6 | 37.1 | 32 | 41.2 | 56.4 |  |  |  |  |  |  |  |  |  | 
COc1ccc2[nH]c3c(c2c1)CCc1ccccc1-3 | > 100 | > 100 | > 100 | > 100 | > 100 | > 100 | > 100 | > 100 | > 100 | > 100 |  |  |  |  |  |  |  |  |  | 
COC(=O)C1(Cc2ccccc2C)Cc2ccc(C)cc2C1=O (stereo not given) | > 100 | > 100 | 47.7 | > 100 | > 100 | > 100 | > 100 | > 100 | > 100 | > 100 |  |  |  |  |  |  |  |  |  | 
O=C1C(c2c(O)n(-c3ccccc3)c3ccccc23)=Nc2ccccc21 | 70 | > 100 | 97.3 | > 100 | 83.2 | > 100 | > 100 | > 100 | > 100 | > 100 |  |  |  |  |  |  |  |  |  | 
N=C1SCCS1 | > 100 | > 100 | > 100 | > 100 | > 100 | > 100 | > 100 | > 100 | > 100 | > 100 |  |  |  |  |  |  |  |  |  | 
ClCc1nc2cc(Cl)ccc2o1 | 42.9 | 20.7 | 16 | 23.1 | 8.89 | 28.6 | 38.6 | 31.6 | > 25.7 | 20 |  |  |  |  |  |  |  |  |  | 
CCOC(=O)c1c(C)n(-c2ccc(C)cc2)c2c1cc(O)c1[nH]c3c(c12)CCCC3 | 60 | 33.1 | 33.7 | 46.7 | 99.7 | 51.5 | > 100 | 84.5 | 7.64 | 82.3 |  |  |  |  |  |  |  |  |  | 
COC(=O)C1CCCCCCCCCCC12SCCCS2 (stereo not given) | 42.8 | 36.1 | 41.9 | 59.4 | 35.6 | 36 | 34.7 | > 100 | 51.1 | 48.8 |  |  |  |  |  |  |  |  |  | 
